Data from ChEMBL document CHEMBL1158890, “Complement-inhibiting iridoids from Morinda morindoides” (J Nat Prod, 2003).
Active and inactive are the calls of the source. The rule behind the calls is not given here.

Tests used:
[1] = Inhibition of classical complement pathway activation at 6.6 uM assessed as complement modulation test
[2] = Inhibition of classical complement pathway activation at 4 uM assessed as complement modulation test
[3] = Inhibition of alternative complement pathway activation by complement modulation test
[4] = Inhibition of classical complement pathway activation at 4 uM in presence of beta glucosidase by complement modulation test
[5] = Inhibition of classical complement pathway activation by complement modulation test

Row | SMILES | inhibition [1] [%] | inhibition [2] [%] | Activity [3] | inhibition [4] [%] | IC50 [5] [µM]
1 | COC(=O)C1=CO[C@@H](O)[C@@H]2C(CO)=CC[C@H]12 | 75.3 | – | – | – | –
2 | COC(=O)C1=CO[C@@H](O[C@@H]2O[C@H](CO)[C@@H](O)[C@H](O)[C@H]2O)[C@@H]2C(CO)=CC[C@H]12 | – | 23 | – | – | –
3 | COC(=O)C1=CO[C@H](O[C@@H]2O[C@H](CO)[C@@H](O)[C@H](O)[C@H]2O)[C@H]2[C@@H]1[C@@H]1O[C@@H]1[C@@]21C=C(C(O)c2ccc(O)c(OC)c2)C(=O)O1 (stereo partly specified) | – | – | inactive | – | –
4 | O=C(O)C1=CO[C@@H](O[C@@H]2O[C@H](CO)[C@@H](O)[C@H](O)[C@H]2O)[C@@H]2C(CO)=CC[C@H]12 | – | 14.3 | – | 87.3 | –
5 | OCC1=C[C@@H](O)[C@@H]2C=CO[C@@H](O[C@@H]3O[C@H](CO)[C@@H](O)[C@H](O)[C@H]3O)[C@H]12 | – | 21.7 | – | 89.3 | –
6 | COC(=O)C1=CO[C@H](O[C@@H]2O[C@H](COC(C)=O)[C@@H](O)[C@H](O)[C@H]2O)[C@H]2[C@@H]1C=C[C@@]21C=C(C(O)c2ccc(O)cc2)C(=O)O1 (stereo partly specified) [ACETYLGAERTNEROSIDE] | – | – | inactive | – | 71
7 | COC(=O)C1=CO[C@H](O[C@@H]2O[C@H](CO)[C@@H](O)[C@H](O)[C@H]2O)[C@H]2[C@@H]1C=C[C@@]21C=C(C(=O)c2ccc(O)cc2)C(=O)O1 [DEHYDROGAERTNEROSIDE] | – | – | inactive | – | > 400
8 | COC(=O)C1=CO[C@@H](O[C@@H]2O[C@H](CO)[C@@H](O)[C@H](O)[C@H]2O)[C@H]2[C@@H]1C=C[C@@]21C=C(C(=O)c2ccc(O)c(OC)c2)C(=O)O1 [DEHYDROMETHOXYGAERTNEROSIDE] | – | – | inactive | – | > 400
9 | COC(=O)C1=CO[C@H](O[C@@H]2O[C@H](CO)[C@@H](O)[C@H](O)[C@H]2O)[C@H]2[C@@H]1[C@@H]1O[C@@H]1[C@@]21C=C(C(O)c2ccc(O)cc2)C(=O)O1 (stereo partly specified) [EPOXYGAERTNEROSIDE] | – | – | inactive | – | > 1000
10 | O=C(O)C1=CO[C@H](O[C@@H]2O[C@H](CO)[C@@H](O)[C@H](O)[C@H]2O)[C@H]2[C@@H]1C=C[C@@]21C=C(C(O)c2ccc(O)cc2)C(=O)O1 (stereo partly specified) [GAERTNERIC ACID] | – | – | inactive | – | 69
11 | COC(=O)C1=CO[C@H](O[C@@H]2O[C@H](CO)[C@@H](O)[C@H](O)[C@H]2O)[C@H]2[C@@H]1C=C[C@@]21C=C(C(O)c2ccc(O)cc2)C(=O)O1 (stereo partly specified) [GAERTNEROSIDE] | – | – | inactive | – | 58
12 | COC(=O)C1=CO[C@H](O[C@@H]2O[C@H](CO)[C@@H](O)[C@H](O)[C@H]2O)[C@H]2[C@@H]1C=C[C@@]21C=C(C(O)c2ccc(O)c(OC)c2)C(=O)O1 (stereo partly specified) [METHOXYGAERTNEROSIDE] | – | – | inactive | – | > 1000
